Measurements: ChEMBL document CHEMBL3885881, “DrugMatrix”

Species: Rattus norvegicus
Assay: DrugMatrix - Regimen: Daily Repeat
Assay type: toxicity, organism-based, Sprague-Dawley
Set-up: regimen Daily Repeat, gender Male, age 6-8 weeks
Conditions: in vivo, po, route oral GAVAGE, […]; for ABSOLUTE BASOPHIL / ABSOLUTE EOSINOPHIL / ABSOLUTE LYMPHOCYTE / ABSOLUTE MONOCYTE / ABSOLUTE SEGMENTED NEUTROPHIL / BASOPHIL / EOSINOPHIL / ERYTHROCYTE COUNT / HEMATOCRIT / HEMOGLOBIN / LEUKOCYTE COUNT / LYMPHOCYTE / MEAN CORPUSCULAR HEMOGLOBIN / MEAN CORPUSCULAR HEMOGLOBIN CONCENTRATION / MEAN CORPUSCULAR VOLUME / MONOCYTE / NEUTROPHIL / NUCLEATED RED BLOOD CELLS / PLATELET COUNT: tissue Blood; for ALANINE AMINOTRANSFERASE / ALBUMIN / ALKALINE PHOSPHATASE / ASPARTATE AMINOTRANSFERASE / BLOOD UREA NITROGEN / CARBON DIOXIDE / CHLORIDE / CHOLESTEROL / CREATINE PHOSPHOKINASE / CREATININE / GLUCOSE / LACTATE DEHYDROGENASE / LIPASE / PHOSPHORUS / POTASSIUM / SODIUM / TOTAL BILIRUBIN / TOTAL PROTEIN / URIC ACID: tissue Plasma
[1] = 0 mg/kg, 72 h, dose level Control, time 3 day
[2] = 0 mg/kg, 120 h, dose level Control, time 5 day
[3] = 4 mg/kg, 72 h, dose level Low, time 3 day

## CSc1ccc2c(c1)N(CCC1CCCCN1C)c1ccccc1S2 (centres undefined) [THIORIDAZINE]
[1]
  ABSOLUTE BASOPHIL: 0 CELLS/uL
  ABSOLUTE EOSINOPHIL: 179.67 CELLS/uL
  ABSOLUTE LYMPHOCYTE: 11440.17 CELLS/uL
  ABSOLUTE MONOCYTE: 128.83 CELLS/uL
  ABSOLUTE SEGMENTED NEUTROPHIL: 1051.33 CELLS/uL
  BASOPHIL: 0%
  EOSINOPHIL: 1.33%
  ERYTHROCYTE COUNT: 5.53 x10E6/uL
  HEMATOCRIT: 34.75%
  HEMOGLOBIN: 12.88 G/DL
  LEUKOCYTE COUNT: 12.8 x10E3/uL
  LYMPHOCYTE: 89.5%
  MEAN CORPUSCULAR HEMOGLOBIN: 23.38 pg
  MEAN CORPUSCULAR HEMOGLOBIN CONCENTRATION: 37.12 G/DL
  MEAN CORPUSCULAR VOLUME: 62.88 fL
  MONOCYTE: 1%
  NEUTROPHIL: 8.17%
  NUCLEATED RED BLOOD CELLS: 0 /100WBC
  PLATELET COUNT: 1292 x10E3/uL
  ALANINE AMINOTRANSFERASE: 58.67 u/L
  ALBUMIN: 4.25 G/DL
  ALKALINE PHOSPHATASE: 437.83 u/L
  ASPARTATE AMINOTRANSFERASE: 85.17 u/L
  BLOOD UREA NITROGEN: 14.17 mg/dL
  CARBON DIOXIDE: 28.67 mmol/L
  CHLORIDE: 102.17 MEQ/L
  CHOLESTEROL: 68.5 mg/dL
  CREATINE PHOSPHOKINASE: 271.83 u/L
  CREATININE: 0.2 mg/dL
  GLUCOSE: 156.67 mg/dL
  LACTATE DEHYDROGENASE: 112.33 u/L
  LIPASE: 9.33 u/L
  PHOSPHORUS: 11.1 mg/dL
  POTASSIUM: 6.46 MEQ/L
  SODIUM: 144.37 MEQ/L
  TOTAL BILIRUBIN: 0.23 mg/dL
  TOTAL PROTEIN: 5.8 G/DL
  URIC ACID: 1.55 mg/dL
[2]
  ABSOLUTE BASOPHIL: 0 CELLS/uL
  ABSOLUTE EOSINOPHIL: 87 CELLS/uL
  ABSOLUTE LYMPHOCYTE: 14743.5 CELLS/uL
  ABSOLUTE MONOCYTE: 187 CELLS/uL
  ABSOLUTE SEGMENTED NEUTROPHIL: 1499.17 CELLS/uL
  BASOPHIL: 0%
  EOSINOPHIL: 0.5%
  ERYTHROCYTE COUNT: 5.84 x10E6/uL
  HEMATOCRIT: 36.3%
  HEMOGLOBIN: 13.55 G/DL
  LEUKOCYTE COUNT: 16.52 x10E3/uL
  LYMPHOCYTE: 89.5%
  MEAN CORPUSCULAR HEMOGLOBIN: 23.25 pg
  MEAN CORPUSCULAR HEMOGLOBIN CONCENTRATION: 37.35 G/DL
  MEAN CORPUSCULAR VOLUME: 62.27 fL
  MONOCYTE: 1.17%
  NEUTROPHIL: 8.83%
  NUCLEATED RED BLOOD CELLS: 0.17 /100WBC
  PLATELET COUNT: 1233.5 x10E3/uL
  ALANINE AMINOTRANSFERASE: 62.5 u/L
  ALBUMIN: 4.17 G/DL
  ALKALINE PHOSPHATASE: 464.33 u/L
  ASPARTATE AMINOTRANSFERASE: 99.67 u/L
  BLOOD UREA NITROGEN: 14.33 mg/dL
  CARBON DIOXIDE: 26 mmol/L
  CHLORIDE: 102.33 MEQ/L
  CHOLESTEROL: 60.67 mg/dL
  CREATINE PHOSPHOKINASE: 402.5 u/L
  CREATININE: 0.22 mg/dL
  GLUCOSE: 173.5 mg/dL
  LACTATE DEHYDROGENASE: 518.17 u/L
  LIPASE: 10.83 u/L
  PHOSPHORUS: 11.4 mg/dL
  POTASSIUM: 6.13 MEQ/L
  SODIUM: 142.63 MEQ/L
  TOTAL BILIRUBIN: 0.17 mg/dL
  TOTAL PROTEIN: 6.1 G/DL
  URIC ACID: 1.97 mg/dL
[3]
  ABSOLUTE BASOPHIL: 0 CELLS/uL
  ABSOLUTE EOSINOPHIL: 0 CELLS/uL
  ABSOLUTE LYMPHOCYTE: 12903.67 CELLS/uL
  ABSOLUTE MONOCYTE: 46 CELLS/uL
  ABSOLUTE SEGMENTED NEUTROPHIL: 817 CELLS/uL
  BASOPHIL: 0%
  EOSINOPHIL: 0%
  ERYTHROCYTE COUNT: 5.52 x10E6/uL
  HEMATOCRIT: 35.4%
  HEMOGLOBIN: 13.13 G/DL
  LEUKOCYTE COUNT: 13.77 x10E3/uL
  LYMPHOCYTE: 93.67%
  MEAN CORPUSCULAR HEMOGLOBIN: 23.8 pg
  MEAN CORPUSCULAR HEMOGLOBIN CONCENTRATION: 37.1 G/DL
  MEAN CORPUSCULAR VOLUME: 64.17 fL
  MONOCYTE: 0.33%
  NEUTROPHIL: 6%
  NUCLEATED RED BLOOD CELLS: 0 /100WBC
  PLATELET COUNT: 1132.33 x10E3/uL
  ALANINE AMINOTRANSFERASE: 50 u/L
  ALBUMIN: 4.1 G/DL
  ALKALINE PHOSPHATASE: 495.33 u/L
  ASPARTATE AMINOTRANSFERASE: 79.67 u/L
  BLOOD UREA NITROGEN: 12 mg/dL
  CARBON DIOXIDE: 28.67 mmol/L
  CHLORIDE: 101.67 MEQ/L
  CHOLESTEROL: 70.67 mg/dL
  CREATINE PHOSPHOKINASE: 382.67 u/L
  CREATININE: 0.17 mg/dL
  GLUCOSE: 176.33 mg/dL
  LACTATE DEHYDROGENASE: 65.33 u/L
  LIPASE: 9.67 u/L
  PHOSPHORUS: 11.5 mg/dL
  POTASSIUM: 6.31 MEQ/L
  SODIUM: 142.93 MEQ/L
  TOTAL BILIRUBIN: 0.2 mg/dL
  TOTAL PROTEIN: 5.57 G/DL
  URIC ACID: 1.93 mg/dL
